Target: T1, PI3Kα (Homo sapiens, UniProt P42336)
T1 construct: Full length p110 subunits of PI3K α, β and δ, N-terminally labeled with polyHis tag; polyHis (N); made in house; host or cells: Sf9 insect cells (baculovirus)
Assay: In vitro PI3K AlphaScreen assay, PI3Kα
Format: biochemical
Conditions: PI(4,5)P2 substrate, 20 minutes at room temperature, read-out: P13Kalpha IC50 um
Outline: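 PI3Kα at 1.6 nM (2× stock) with PI(4,5)P2 10 μM and ATP 20 μM (2× stocks) in Tris pH 7, MgCl2, cholate, NaCl, DTT; 20 min at room temperature. Quenched with biotin-IP4/streptavidin-Donor beads, then GST-PIP3-binding protein/anti-GST Acceptor beads, 1.5 h dark; PIP3 formation read as loss of AlphaScreen signal.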

T1 sequence (P42336 whole entry): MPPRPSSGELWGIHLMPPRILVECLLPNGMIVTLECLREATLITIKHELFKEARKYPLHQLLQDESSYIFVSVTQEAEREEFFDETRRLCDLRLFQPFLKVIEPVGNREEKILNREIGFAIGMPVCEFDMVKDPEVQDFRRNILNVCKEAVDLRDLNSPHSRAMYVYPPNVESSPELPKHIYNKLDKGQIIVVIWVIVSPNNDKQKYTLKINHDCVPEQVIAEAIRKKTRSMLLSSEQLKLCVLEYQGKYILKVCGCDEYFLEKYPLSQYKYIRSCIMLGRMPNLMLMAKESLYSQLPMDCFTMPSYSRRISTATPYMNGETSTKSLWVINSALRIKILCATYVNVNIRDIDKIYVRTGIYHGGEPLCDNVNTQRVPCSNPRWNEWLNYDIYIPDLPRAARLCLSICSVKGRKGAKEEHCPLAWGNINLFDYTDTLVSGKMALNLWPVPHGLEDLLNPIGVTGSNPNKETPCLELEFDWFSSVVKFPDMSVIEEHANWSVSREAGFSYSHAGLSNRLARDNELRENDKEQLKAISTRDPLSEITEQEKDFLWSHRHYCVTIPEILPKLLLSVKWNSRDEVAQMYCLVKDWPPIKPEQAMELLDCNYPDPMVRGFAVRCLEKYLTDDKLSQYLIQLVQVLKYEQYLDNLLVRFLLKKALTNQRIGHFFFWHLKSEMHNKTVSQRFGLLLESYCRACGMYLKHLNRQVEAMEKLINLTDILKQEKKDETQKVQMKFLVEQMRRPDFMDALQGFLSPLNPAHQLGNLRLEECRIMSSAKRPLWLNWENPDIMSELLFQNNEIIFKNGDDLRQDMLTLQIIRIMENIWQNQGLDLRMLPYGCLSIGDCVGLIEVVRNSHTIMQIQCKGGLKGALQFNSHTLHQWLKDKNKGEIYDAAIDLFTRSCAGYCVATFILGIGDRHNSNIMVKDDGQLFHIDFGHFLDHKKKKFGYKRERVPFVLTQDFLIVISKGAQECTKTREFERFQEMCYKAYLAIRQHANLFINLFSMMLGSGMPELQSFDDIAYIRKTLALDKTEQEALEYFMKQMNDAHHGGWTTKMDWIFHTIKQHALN
T1 sequence (P27986 whole entry partner): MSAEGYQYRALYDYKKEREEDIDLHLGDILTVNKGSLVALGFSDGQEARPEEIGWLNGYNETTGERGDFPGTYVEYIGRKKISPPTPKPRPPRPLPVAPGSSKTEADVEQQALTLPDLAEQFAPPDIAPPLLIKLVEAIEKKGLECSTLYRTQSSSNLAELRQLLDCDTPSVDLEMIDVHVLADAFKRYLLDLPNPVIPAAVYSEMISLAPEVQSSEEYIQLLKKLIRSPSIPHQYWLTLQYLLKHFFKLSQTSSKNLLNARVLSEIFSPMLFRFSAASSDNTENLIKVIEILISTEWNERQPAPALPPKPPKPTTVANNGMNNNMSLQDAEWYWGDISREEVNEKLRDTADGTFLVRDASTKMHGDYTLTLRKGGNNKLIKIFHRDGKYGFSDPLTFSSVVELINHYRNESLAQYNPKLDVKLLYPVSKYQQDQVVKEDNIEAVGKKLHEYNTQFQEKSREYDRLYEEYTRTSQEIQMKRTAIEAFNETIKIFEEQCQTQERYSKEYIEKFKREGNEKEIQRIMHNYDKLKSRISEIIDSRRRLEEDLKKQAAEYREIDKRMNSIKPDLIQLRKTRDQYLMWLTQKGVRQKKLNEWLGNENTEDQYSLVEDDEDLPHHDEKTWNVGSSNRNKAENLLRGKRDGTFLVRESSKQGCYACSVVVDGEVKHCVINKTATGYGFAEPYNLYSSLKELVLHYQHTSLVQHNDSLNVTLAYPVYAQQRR

SMILES | IC50
Cc1nc(NC(=O)N2CCN(C)CC2)cc(-c2c(Nc3cc[nH]n3)nc3cccnn23)n1 [Cpd 77, 4-methyl-N-(2-methyl-6-(2-(1H-pyrazol-3-ylamino)imidazo[1,2-b]pyridazin-3-yl)-4-pyrimidinyl)-1-piperazinecarboxamide] | 15300 nM
Cc1nc(NCC#N)cc(-c2c(Nc3cc[nH]n3)nc3cccnn23)n1 [Cpd 90] | 590 nM
Cc1nc(NC(=O)CN(C)C)cc(-c2c(Nc3ccn(C)n3)nc3cccnn23)n1 [Cpd 92] | 20100 nM
Cc1nc(N)nc(-c2c(Nc3cc[nH]n3)nc3ccc(C4=CCN(C(=O)OC(C)(C)C)CC4)cn23)n1 [Cpd 97, tert-butyl 4-(3-(4-amino-6-methyl-1,3,5-triazin-2-yl)-2-(1H-pyrazol-3-ylamino)imidazo[1,2-a]pyridin-6-yl)-3,6-dihydro-1(2H)-pyridinecarboxylate] | 350 nM
CNC(=O)c1ccc(-c2ccc3nc(Nc4cc[nH]n4)c(-c4nc(C)nc(N)n4)n3c2)cc1F [Cpd 99, 4-(3-(4-amino-6-methyl-1,3,5-triazin-2-yl)-2-(1H-pyrazol-3-ylamino)imidazo[1,2-a]pyridin-6-yl)-2-fluoro-N-methylbenzamide] | 110 nM
CC(=O)NCc1ccc(-c2ccc3nc(Nc4cc[nH]n4)c(-c4nc(C)nc(N)n4)n3c2)cc1 [Cpd 100, N-(4-(3-(4-amino-6-methyl-1,3,5-triazin-2-yl)-2-(1H-pyrazol-3-ylamino)imidazo[1,2-a]pyridin-6-yl)benzyl)acetamide] | 420 nM
Cc1nc(N)nc(-c2c(Nc3cc[nH]n3)nc3ccc(-c4ccoc4)cn23)n1 [Cpd 105, 3-(4-amino-6-methyl-1,3,5-triazin-2-yl)-6-(3-furanyl)-N-1H-pyrazol-3-ylimidazo[1,2-a]pyridin-2-amine] | 40 nM
Cc1nc(N)nc(-c2c(Nc3cc[nH]n3)nc3ccc(-c4ccc(F)cc4C)cn23)n1 [Cpd 107, 3-(4-amino-6-methyl-1,3,5-triazin-2-yl)-6-(4-fluoro-2-methylphenyl)-N-1H-pyrazol-3-ylimidazo[1,2-a]pyridin-2-amine] | 250 nM
CSc1cccc(-c2ccc3nc(Nc4cc[nH]n4)c(-c4nc(C)nc(N)n4)n3c2)c1 [Cpd 109, 3-(4-amino-6-methyl-1,3,5-triazin-2-yl)-6-(3-(methylsulfanyl)phenyl)-N-1H-pyrazol-3-ylimidazo[1,2-a]pyridin-2-amine] | 470 nM
CC(=O)Nc1cccc(-c2ccc3nc(Nc4cc[nH]n4)c(-c4nc(C)nc(N)n4)n3c2)c1 [Cpd 114, N-(3-(3-(4-amino-6-methyl-1,3,5-triazin-2-yl)-2-(1H-pyrazol-3-ylamino)imidazo[1,2-a]pyridin-6-yl)phenyl)acetamide] | 100 nM
Cc1nc(N)nc(-c2c(Nc3cc[nH]n3)nc3ccc(-c4cccc(NC(=O)C5CC5)c4)cn23)n1 [Cpd 115, N-(3-(3-(4-amino-6-methyl-1,3,5-triazin-2-yl)-2-(1H-pyrazol-3-ylamino)imidazo[1,2-a]pyridin-6-yl)phenyl)cyclopropanecarboxamide] | 40 nM
Cc1nc(NC(=O)C2CC2)cc(-c2c(Nc3cc[nH]n3)nc3cccnn23)n1 [Cpd 120] | 1000 nM
COCC(=O)Nc1cc(-c2c(Nc3ccn(C)n3)nc3cccnn23)nc(C)n1 [Cpd 123, 2-methoxy-N-(2-methyl-6-(2-((1-methyl-1H-pyrazol-3-yl)amino)imidazo[1,2-b]pyridazin-3-yl)-4-pyrimidinyl)acetamide] | 6930 nM
Cc1nc(NC(=O)CC#N)cc(-c2c(Nc3ccn(C)n3)nc3ccccn23)n1 [Cpd 126, 2-cyano-N-(2-methyl-6-(2-((1-methyl-1H-pyrazol-3-yl)amino)imidazo[1,2-a]pyridin-3-yl)-4-pyrimidinyl)acetamide] | 5340 nM
Cc1nc(NC(=O)CC(F)(F)F)cc(-c2c(Nc3ccn(C)n3)nc3cccnn23)n1 [Cpd 134, 3,3,3-trifluoro-N-(2-methyl-6-(2-((1-methyl-1H-pyrazol-3-yl)amino)imidazo[1,2-b]pyridazin-3-yl)-4-pyrimidinyl)propanamide] | 2080 nM
Cc1nc(Nc2ccc(N3CCOC(C)C3)nn2)cc(-c2c(Nc3cc[nH]n3)nc3cccnn23)n1 (stereo not drawn) [Cpd 140, 3-(2-methyl-6-((6-(2-methyl-4-morpholinyl)-3-pyridazinyl)amino)-4-pyrimidinyl)-N-1H-pyrazol-3-ylimidazo[1,2-b]pyridazin-2-amine] | 60 nM
Cc1nc(N)cc(-c2c(Nc3cccc(N4CCN(C)CC4)c3)nc3cccnn23)n1 [Cpd 151, 3-(6-amino-2-methyl-4-pyrimidinyl)-N-(3-(4-methyl-1-piperazinyl)-phenyl)imidazo[1,2-b]pyridazin-2-amine] | 9520 nM
Cc1nc(N)nc(-c2c(Nc3cc[nH]n3)nc3ccc(Nc4ccncc4)cn23)n1 [Cpd 166] | 5650 nM
Cc1nc(N)nc(-c2c(Nc3cc[nH]n3)nc3ccc(-c4ccc5c(c4)CCNC5=O)cn23)n1 [Cpd 175, 6-(3-(4-amino-6-methyl-1,3,5-triazin-2-yl)-2-(1H-pyrazol-3-ylamino)imidazo[1,2-a]pyridin-6-yl)-3,4-dihydro-1(2H)-isoquinolinone] | 140 nM
Cc1nc(N)nc(-c2c(Nc3cc[nH]n3)nc3ccc(-c4ccc(C(=O)O)cc4C)cn23)n1 [Cpd 177, 4-(3-(4-amino-6-methyl-1,3,5-triazin-2-yl)-2-(1H-pyrazol-3-ylamino)imidazo[1,2-a]pyridin-6-yl)-3-methylbenzoic acid] | 80 nM
Cc1nc(N)nc(-c2c(Nc3cc[nH]n3)nc3cc(C4=CCN(C(=O)OC(C)(C)C)CC4)ccn23)n1 [Cpd 183, tert-butyl 4-(3-(4-amino-6-methyl-1,3,5-triazin-2-yl)-2-(1H-pyrazol-3-ylamino)imidazo[1,2-a]pyridin-7-yl)-3,6-dihydro-1(2H)-pyridinecarboxylate] | 50 nM
COCCOc1ccn2c(-c3nc(C)nc(N)n3)c(Nc3cc[nH]n3)nc2c1 [Cpd 185, 3-(4-amino-6-methyl-1,3,5-triazin-2-yl)-7-(2-methoxyethoxy)-N-1H-pyrazol-3-ylimidazo[1,2-a]pyridin-2-amine] | 700 nM
Cc1nc(N)nc(-c2c(Nc3cc[nH]n3)nc3cc(OCCN4CCCC4)ccn23)n1 [Cpd 188] | 7010 nM
Cc1nc(N)nc(-c2c(Nc3ccn(C(=O)Nc4ccccc4)n3)nc3ccccn23)n1 [Cpd 204, 3-((3-(4-amino-6-methyl-1,3,5-triazin-2-yl)imidazo[1,2-a]pyridin-2-yl)amino)-N-phenyl-1H-pyrazole-1-carboxamide] | 3000 nM
Cc1nc(N)nc(-c2c(Nc3cnn(C(=O)Oc4ccccc4)c3)nc3ccccn23)n1 [Cpd 209, phenyl 4-((3-(4-amino-6-methyl-1,3,5-triazin-2-yl)imidazo[1,2-a]pyridin-2-yl)amino)-1H-pyrazole-1-carboxylate] | 830 nM
Cc1nc(N)cc(-c2c(Nc3ccn(-c4ccccn4)n3)nc3ccccn23)n1 [Cpd 216, 3-(6-amino-2-methyl-4-pyrimidinyl)-N-(1-(2-pyridinyl)-1H-pyrazol-3-yl)imidazo[1,2-a]pyridin-2-amine] | 1370 nM
Cc1nc(N)cc(-c2c(Nc3ccn(C(=O)NCc4ccccc4)n3)nc3ccccn23)n1 [Cpd 222, 3-((3-(6-amino-2-methyl-4-pyrimidinyl)imidazo[1,2-a]pyridin-2-yl)amino)-N-benzyl-1H-pyrazole-1-carboxamide] | 1200 nM
